Assay results published in PubChem BioAssay AID2060492 (Molecular Pharmacology Branch, DTP, NCI, 2025).

Tested on: 695427-040-R-J1-PDC complex spheroids, viability percent T/C
Test: Anticancer human tumor 695427-040-R-J1-PDC patient-derived colon adenocarcinoma cell line growth inhibition [GQUAD]
Conditions: for IC50: curve of first compound; for viability, T/C: stronger effect = lower value; active = viability on the fitted dose curve at most 10% of control; inactive = the rest
Source text: DNA G-quadruplex Stabilizer Agents in Combinations in Complex Spheroids
A high-throughput screen of multi-cell type tumor spheroids was designed to identify active combinations of DNA G-quadruplex stabilizer agents and targeted small molecules. Complex spheroids include a stromal component modeled by human endothelial cells (HUVEC) and fibroblasts modeled by human mesenchymal stem cells (MSCs). The concentration ranges selected for each drug and investigational agent were based upon clinically achievable concentrations if the clinical Cmax of the agent was known.
Compounds. The drugs and investigational agents: pidnarulex (CX-5461; NSC782164), APTO-253 (NSC789042), BRACO-19 (NSC847499), peposertib (NSC802822), ceralasertib (NSC780249), elimusertib (NSC800525), camonsertib (NSC841442), AZD-1390 (NSC803789), olaparib (NSC753686), talazoparib (NSC767125), ART-558 (NSC835418), sotorasib (NSC818433), MRTX-1133 (NSC836407), SN-38 (NSC673596), topotecan (NSC609699), etoposide (NSC141540), doxorubicin (NSC123127), gemcitabine (NSC613327), 5-fluorouracil (NSC19893), paclitaxel (NSC125973), vemurafenib (NSC761431), panobinostat (NSC761190), R-306465 (JNJ-16241199; NSC773264), adavosertib (NSC754352), TP-3654 (NSC805149), carboplatin (NSC241240), KSQ-4279 (NSC840948), and staurosporine (NSC755774) were obtained from the National Cancer Institute (NCI) Developmental Therapeutics Program Chemical Repository (34). The FDA-approved anticancer drug set is available from the NCI Developmental Therapeutics Program. […] The stock solutions were prepared in dimethyl sulfoxide (DMSO, Sigma-Aldrich, St. Louis, MO, cat. D2650) at 800-fold the tested concentration and stored at -70 degrees C prior to their use. All drugs and investigational agents were tested over a range starting from a high concentration at or near the clinical Cmax and decreasing in half-log increments. If the clinical Cmax for an agent had not been determined, the highest concentration tested was 10 microM.
2.3 Cell Culture. All cells were maintained in an incubator at 37 degrees C and 5% CO2 with 95% humidity. The PDC lines were cultured according to standard operating procedures established by the NCI PDMR. All PDCs were thawed and cultured in Matrigel-coated flasks prepared with a working solution of 1X Ham's F-12 nutrient mix, without supplementation (Invitrogen, cat. 11765054), 100 U/mL penicillin-streptomycin (Invitrogen, cat. 15140122), and 2.5% Matrigel (Corning Inc., cat. 354248) for the first three passages. The 857933-349-R-J2-PDC line was cultured in 6C/Colon 1B media, which includes advanced DMEM/F-12 (Thermo Fisher Scientific, cat. 12634028), 10 mM HEPES (Thermo Fisher Scientific, cat. 15630080), 1X GlutaMAX supplement (Thermo Fisher Scientific, cat. 35050061), 0.1 mg/mL primocin (InvivoGen, cat. ant-pm-2), 10% defined fetal bovine serum, heat inactivated (HyClone Laboratories Inc., cat. SH30070.03HI), 50% L-WRN conditioned media (ATCC, cat. CRL-3276), 1.25 mM N-Acetyl-L-cysteine (Sigma-Aldrich, cat. A9165), 10 mM nicotinamide (Sigma-Aldrich, cat. N0636), 1X B-27 supplement (Thermo Fisher Scientific, cat. 17504044), 1X N-2 supplement (Thermo Fisher Scientific, cat. 17502048), 10 microM Y-27632 dihydrochloride (Tocris Bioscience, cat. 1254), and 50 ng/mL human EGF recombinant protein (Thermo Fisher Scientific, cat. PHG0311). The 485176-168-R4-J1-PDC line was cultured in Panc media, which includes all 6C/Colon 1B media components plus 100 ng/mL human FGF-10 (Thermo Fisher Scientific, cat. 100-26), 500 nM SB-431542 (Selleckchem, cat. S1067), and gastrin (Tocris, cat. 3006).
[…]
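Also: spheroids exposed to compounds for seven days before readout.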

CC(=O)O[C@H]1C(=O)[C@@]2(C)[C@H]([C@H](OC(=O)c3ccccc3)[C@]3(O)C[C@H](OC(=O)[C@H](O)[C@@H](NC(=O)c4ccccc4)c4ccccc4)C(C)=C1C3(C)C)[C@]1(OC(C)=O)CO[C@@H]1C[C@@H]2O + Cc1[nH]c2ccc(F)cc2c1-c1nc2c3cccnc3c3ncccc3c2[nH]1
467 nM: IC50 (second compound 0.1 µM)
496 nM: IC50 (second compound 10 µM)
active: viability, T/C (second compound 0.0316 µM, first compound 1 µM) 4.67% | viability, T/C (second compound 0.0316 µM, first compound 3.16 µM) 0.18% | viability, T/C (second compound 0.0316 µM, first compound 10 µM) 0.29% | viability, T/C (second compound 0.1 µM, first compound 1 µM) 4.64% | viability, T/C (second compound 0.1 µM, first compound 3.16 µM) 0.18% | viability, T/C (second compound 0.1 µM, first compound 10 µM) 0.45% | viability, T/C (second compound 0.316 µM, first compound 1 µM) 6.24% | viability, T/C (second compound 0.316 µM, first compound 3.16 µM) 0.21% | viability, T/C (second compound 0.316 µM, first compound 10 µM) 0.26% | viability, T/C (second compound 1 µM, first compound 1 µM) 7.42% | viability, T/C (second compound 1 µM, first compound 3.16 µM) 0.2% | viability, T/C (second compound 1 µM, first compound 10 µM) 0.87% | viability, T/C (second compound 3.16 µM, first compound 1 µM) 7.14% | viability, T/C (second compound 3.16 µM, first compound 3.16 µM) 0.33% | viability, T/C (second compound 3.16 µM, first compound 10 µM) 0.32% | viability, T/C (second compound 10 µM, first compound 3.16 µM) 0.5% | viability, T/C (second compound 10 µM, first compound 10 µM) 0.22%
453 nM: IC50 (second compound 3.16 µM)
inactive: viability, T/C (second compound 0.0316 µM, first compound 0.0316 µM) 99.4% | viability, T/C (second compound 0.0316 µM, first compound 0.1 µM) 92.9% | viability, T/C (second compound 0.0316 µM, first compound 0.316 µM) 71.6% | viability, T/C (second compound 0.1 µM, first compound 0.0316 µM) 103% | viability, T/C (second compound 0.1 µM, first compound 0.1 µM) 97.7% | viability, T/C (second compound 0.1 µM, first compound 0.316 µM) 73.2% | viability, T/C (second compound 0.316 µM, first compound 0.0316 µM) 102% | viability, T/C (second compound 0.316 µM, first compound 0.1 µM) 91.2% | viability, T/C (second compound 0.316 µM, first compound 0.316 µM) 69.8% | viability, T/C (second compound 1 µM, first compound 0.0316 µM) 89.3% | viability, T/C (second compound 1 µM, first compound 0.1 µM) 87% | viability, T/C (second compound 1 µM, first compound 0.316 µM) 72.2% | viability, T/C (second compound 3.16 µM, first compound 0.0316 µM) 78.3% | viability, T/C (second compound 3.16 µM, first compound 0.1 µM) 82.9% | viability, T/C (second compound 3.16 µM, first compound 0.316 µM) 69.4% | viability, T/C (second compound 10 µM, first compound 0.0316 µM) 77.1% | viability, T/C (second compound 10 µM, first compound 0.1 µM) 79.7% | viability, T/C (second compound 10 µM, first compound 0.316 µM) 75.7% | viability, T/C (second compound 10 µM, first compound 1 µM) 10%
469 nM: IC50 (second compound 1 µM)
451 nM: IC50 (second compound 0.316 µM)
458 nM: IC50 (second compound 0.0316 µM)
